Assay results: patent publication US20120029187A1, “HALOALKYLSULFONANILIDE DERIVATIVE” (Nissan Chemical Industries, Ltd., priority 2009, published 2012)

Assays:
Type in all cases: in vivo
ducksalad [1] = assay: Test Example 2: herbicidal effects during the vegetation period under submerged conditions; details: treatment during the vegetation period under submerged conditions; dose 2.52 g/a
How it was run: (§1)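 Barnyardgrass, bulrush and ducksalad were co-sown in alluvial soil flooded to 4 cm and grown in a greenhouse at 25 to 30° C. At the 1- or 2-leaf stage, water-diluted emulsifiable concentrates went onto the water surface at set doses (g/a). Herbicidal effect was scored three weeks later on a graded scale.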

bulrush [2] = assay: as above; details: treatment during the vegetation period under submerged conditions; dose 2.52 g/a
How it was run: as §1

barnyardgrass [3] = assay: as above; details: treatment during the vegetation period under submerged conditions; dose 2.52 g/a
How it was run: as §1

transplanted rice = assay: Test Example 1: preemergence treatment under submerged conditions, effect on crop; details: dose 2.52 g/a
How it was run: (§2)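 Submerged conditions, 4 cm water over alluvial soil. Weeds sown and 2.5-leaf rice transplanted; compound applied preemergence to water surface, doses in g per are. Greenhouse, 25 to 30° C., three weeks, then 0–5 mortality rating.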

ducksalad [4] = assay: Test Example 1: herbicidal effects in preemergence treatment under submerged conditions; details: dose 2.52 g/a
How it was run: as §2

bulrush [5] = assay: as above; details: dose 2.52 g/a
How it was run: as §2

barnyardgrass [6] = assay: as above; details: dose 2.52 g/a
How it was run: as §2

redroot pigweed [7] = assay: Test Example 4: herbicidal effect in foliage treatment; details: dose 3.2 g/a, three weeks after the application
How it was run: (§3)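 Sowing in sterilized diluvial soil, ~1.5 cm cover; growth 14 d, 25–30° C greenhouse; foliar spray of water-diluted EC at predetermined g/a; scoring 3 wk later on graded scale.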

giant foxtail [8] = assay: as above; details: dose 3.2 g/a, three weeks after the application
How it was run: as §3

beadstraw [9] = assay: as above; details: dose 3.2 g/a, three weeks after the application
How it was run: as §3

common lambsquater [10] = assay: as above; details: dose 3.2 g/a, three weeks after the application
How it was run: as §3

common chickweed [11] = assay: as above; details: dose 3.2 g/a, three weeks after the application
How it was run: as §3

Italian ryegrass [12] = assay: as above; details: dose 3.2 g/a, three weeks after the application
How it was run: as §3

wild oat [13] = assay: as above; details: dose 3.2 g/a, three weeks after the application
How it was run: as §3

barnyardgrass [14] = assay: as above; details: dose 3.2 g/a, three weeks after the application
How it was run: as §3

velvetleaf [15] = assay: as above; details: dose 3.2 g/a, three weeks after the application
How it was run: as §3

posumbu knotweed [16] = assay: as above; details: dose 3.2 g/a, three weeks after the application
How it was run: as §3

large crabgrass [17] = assay: as above; details: dose 3.2 g/a, three weeks after the application
How it was run: as §3

water foxtail [18] = assay: as above; details: dose 3.2 g/a, three weeks after the application
How it was run: as §3

common ragweed [19] = assay: as above; details: dose 3.2 g/a, three weeks after the application
How it was run: as §3

redroot pigweed [20] = assay: Test Example 3: herbicidal effects in soil treatment; details: dose 3.2 g/a
How it was run: (§4)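 Seeds were sown in sterilized diluvial soil and covered with about 1.5 cm of soil. Compounds, formulated as emulsifiable concentrates and diluted with water, were sprayed evenly over the soil surface at set doses in g/a. Herbicidal effect was scored on a rating scale three weeks later.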

giant foxtail [21] = assay: as above; details: dose 3.2 g/a
How it was run: as §4

beadstraw [22] = assay: as above; details: dose 3.2 g/a
How it was run: as §4

common lambsquater [23] = assay: as above; details: dose 3.2 g/a
How it was run: as §4

common chickweed [24] = assay: as above; details: dose 3.2 g/a
How it was run: as §4

Italian ryegrass [25] = assay: as above; details: dose 3.2 g/a
How it was run: as §4

wild oat [26] = assay: as above; details: dose 3.2 g/a
How it was run: as §4

barnyardgrass [27] = assay: as above; details: dose 3.2 g/a
How it was run: as §4

velvetleaf [28] = assay: as above; details: dose 3.2 g/a
How it was run: as §4

posumbu knotweed [29] = assay: as above; details: dose 3.2 g/a
How it was run: as §4

large crabgrass [30] = assay: as above; details: dose 3.2 g/a
How it was run: as §4

water foxtail [31] = assay: as above; details: dose 3.2 g/a
How it was run: as §4

common ragweed [32] = assay: as above; details: dose 3.2 g/a
How it was run: as §4

O=C1CCSCN1Cc1ccccc1NS(=O)(=O)C(F)(F)F [II-78]
C: ducksalad, herbicidal effect (evaluation scale 0-5) (ducksalad [1]): 5 (mortality of 90% or above (nearly complete death))
B: bulrush, herbicidal effect (evaluation scale 0-5) (bulrush [2]): 5 (mortality of 90% or above (nearly complete death))
A: barnyardgrass, herbicidal effect (evaluation scale 0-5) (barnyardgrass [3]): 5 (mortality of 90% or above (nearly complete death))
a: transplanted rice, effect on crop (evaluation scale 0-5) (transplanted rice): 0 (mortality of less than 5% (almost ineffective))
C: ducksalad, herbicidal effect (evaluation scale 0-5) (ducksalad [4]): 5 (mortality of 90% or above (nearly complete death))
B: bulrush, herbicidal effect (evaluation scale 0-5) (bulrush [5]): 5 (mortality of 90% or above (nearly complete death))
A: barnyardgrass, herbicidal effect (evaluation scale 0-5) (barnyardgrass [6]): 5 (mortality of 90% or above (nearly complete death))
K: redroot pigweed, herbicidal effect (redroot pigweed [7]): 4 (mortality of at least 70% and less than 90%)
E: giant foxtail, herbicidal effect (giant foxtail [8]): 4 (mortality of at least 70% and less than 90%)
O: beadstraw, herbicidal effect (beadstraw [9]): 5 (mortality of 90% or above (nearly complete death))
L: common lambsquater, herbicidal effect (common lambsquater [10]): 4 (mortality of at least 70% and less than 90%)
N: common chickweed, herbicidal effect (common chickweed [11]): 4 (mortality of at least 70% and less than 90%)
H: Italian ryegrass, herbicidal effect (Italian ryegrass [12]): 5 (mortality of 90% or above (nearly complete death))
F: wild oat, herbicidal effect (wild oat [13]): 0 (mortality of less than 5% (almost ineffective))
A: barnyardgrass, herbicidal effect (barnyardgrass [14]): 4 (mortality of at least 70% and less than 90%)
I: velvetleaf, herbicidal effect (velvetleaf [15]): 5 (mortality of 90% or above (nearly complete death))
M: posumbu knotweed, herbicidal effect (posumbu knotweed [16]): 4 (mortality of at least 70% and less than 90%)
D: large crabgrass, herbicidal effect (large crabgrass [17]): 4 (mortality of at least 70% and less than 90%)
G: water foxtail, herbicidal effect (water foxtail [18]): 5 (mortality of 90% or above (nearly complete death))
J: common ragweed, herbicidal effect (common ragweed [19]): 4 (mortality of at least 70% and less than 90%)
herbicidal effect, K: redroot pigweed (redroot pigweed [20]): 3 (mortality of at least 40% and less than 70%)
herbicidal effect, E: giant foxtail (giant foxtail [21]): 5 (mortality of 90% or above (nearly complete death))
herbicidal effect, O: beadstraw (beadstraw [22]): 0 (mortality of less than 5% (almost ineffective))
herbicidal effect, L: common lambsquater (common lambsquater [23]): 4 (mortality of at least 70% and less than 90%)
herbicidal effect, N: common chickweed (common chickweed [24]): 5 (mortality of 90% or above (nearly complete death))
herbicidal effect, H: Italian ryegrass (Italian ryegrass [25]): 5 (mortality of 90% or above (nearly complete death))
herbicidal effect, F: wild oat (wild oat [26]): 0 (mortality of less than 5% (almost ineffective))
herbicidal effect, A: barnyardgrass (barnyardgrass [27]): 5 (mortality of 90% or above (nearly complete death))
herbicidal effect, I: velvetleaf (velvetleaf [28]): 5 (mortality of 90% or above (nearly complete death))
herbicidal effect, M: posumbu knotweed (posumbu knotweed [29]): 4 (mortality of at least 70% and less than 90%)
herbicidal effect, D: large crabgrass (large crabgrass [30]): 5 (mortality of 90% or above (nearly complete death))
herbicidal effect, G: water foxtail (water foxtail [31]): 5 (mortality of 90% or above (nearly complete death))
herbicidal effect, J: common ragweed (common ragweed [32]): 4 (mortality of at least 70% and less than 90%)

CCOC(=O)N(c1ccccc1CN1OCCCC1=O)S(=O)(=O)C(F)(F)F [III-13]
C: ducksalad, herbicidal effect (evaluation scale 0-5) (ducksalad [1]): 5 (mortality of 90% or above (nearly complete death))
B: bulrush, herbicidal effect (evaluation scale 0-5) (bulrush [2]): 5 (mortality of 90% or above (nearly complete death))
A: barnyardgrass, herbicidal effect (evaluation scale 0-5) (barnyardgrass [3]): 5 (mortality of 90% or above (nearly complete death))
a: transplanted rice, effect on crop (evaluation scale 0-5) (transplanted rice): 1 (mortality of at least 5% and less than 20%)
C: ducksalad, herbicidal effect (evaluation scale 0-5) (ducksalad [4]): 5 (mortality of 90% or above (nearly complete death))
B: bulrush, herbicidal effect (evaluation scale 0-5) (bulrush [5]): 5 (mortality of 90% or above (nearly complete death))
A: barnyardgrass, herbicidal effect (evaluation scale 0-5) (barnyardgrass [6]): 5 (mortality of 90% or above (nearly complete death))
K: redroot pigweed, herbicidal effect (redroot pigweed [7]): 0 (mortality of less than 5% (almost ineffective))
E: giant foxtail, herbicidal effect (giant foxtail [8]): 5 (mortality of 90% or above (nearly complete death))
O: beadstraw, herbicidal effect (beadstraw [9]): 4 (mortality of at least 70% and less than 90%)
L: common lambsquater, herbicidal effect (common lambsquater [10]): 0 (mortality of less than 5% (almost ineffective))
N: common chickweed, herbicidal effect (common chickweed [11]): 4 (mortality of at least 70% and less than 90%)
H: Italian ryegrass, herbicidal effect (Italian ryegrass [12]): 4 (mortality of at least 70% and less than 90%)
F: wild oat, herbicidal effect (wild oat [13]): 0 (mortality of less than 5% (almost ineffective))
A: barnyardgrass, herbicidal effect (barnyardgrass [14]): 5 (mortality of 90% or above (nearly complete death))
I: velvetleaf, herbicidal effect (velvetleaf [15]): 5 (mortality of 90% or above (nearly complete death))
M: posumbu knotweed, herbicidal effect (posumbu knotweed [16]): 0 (mortality of less than 5% (almost ineffective))
D: large crabgrass, herbicidal effect (large crabgrass [17]): 5 (mortality of 90% or above (nearly complete death))
G: water foxtail, herbicidal effect (water foxtail [18]): 5 (mortality of 90% or above (nearly complete death))
J: common ragweed, herbicidal effect (common ragweed [19]): 4 (mortality of at least 70% and less than 90%)
herbicidal effect, K: redroot pigweed (redroot pigweed [20]): 3 (mortality of at least 40% and less than 70%)
herbicidal effect, E: giant foxtail (giant foxtail [21]): 5 (mortality of 90% or above (nearly complete death))
herbicidal effect, O: beadstraw (beadstraw [22]): 0 (mortality of less than 5% (almost ineffective))
herbicidal effect, L: common lambsquater (common lambsquater [23]): 0 (mortality of less than 5% (almost ineffective))
herbicidal effect, N: common chickweed (common chickweed [24]): 4 (mortality of at least 70% and less than 90%)
herbicidal effect, H: Italian ryegrass (Italian ryegrass [25]): 5 (mortality of 90% or above (nearly complete death))
herbicidal effect, F: wild oat (wild oat [26]): 3 (mortality of at least 40% and less than 70%)
herbicidal effect, A: barnyardgrass (barnyardgrass [27]): 5 (mortality of 90% or above (nearly complete death))
herbicidal effect, I: velvetleaf (velvetleaf [28]): 5 (mortality of 90% or above (nearly complete death))
herbicidal effect, M: posumbu knotweed (posumbu knotweed [29]): 0 (mortality of less than 5% (almost ineffective))
herbicidal effect, D: large crabgrass (large crabgrass [30]): 5 (mortality of 90% or above (nearly complete death))
herbicidal effect, G: water foxtail (water foxtail [31]): 5 (mortality of 90% or above (nearly complete death))
herbicidal effect, J: common ragweed (common ragweed [32]): 5 (mortality of 90% or above (nearly complete death))
